US20250281515A1, “CARBORANE COMPOUNDS, CARBORANE ANALOGS, AND METHODS OF USE THEREOF” (Ohio State Innovation Foundation, priority 2018, published 2025)
“And” between values parts separate entries of the source, which are not always exact repeats. Equal entries are not always repeated. Where two headings read alike, the source gives them in different places.

Experiments:
Human full-length ERβ = molecular target: T1, Human full-length ERβ (Homo sapiens, UniProt Q92731); assay: ERβ cell-based luciferase reporter assay, agonist mode
T1 construct: expression vector encoding human full-length ERα or ERβ; expressed in transfected cells; host or cells: HEK293, transiently transfected
Method: (§1) The selectivity and potency of the various compounds was carried out via in vitro testing in ERα and ERβ cell-based reporter assays. The activity of the selected compounds was determined in the cell-based reporter assays in HEK293 cells.
(§2) The HEK293 cells were propagated in a monolayer in phenol red-free DMEM supplemented with 10% fetal bovine serum, 2 mM Glutamax and penicillin/streptomycin (Thermo Fisher Scientific, MA, USA) and incubated in a 5% CO2 humidified atmosphere at 37° C. Right before transfection, the growth medium was changed to phenol red-free DMEM supplemented with 4% HyClone Fetal Bovine Serum, Charcoal/Dextran Treated (GE Healthcare Life Sciences, USA) and 2 mM Glutamax (starvation medium). The cells were transfected with the expression vector encoding human full-length ERα or ERβ and with the reporter vector containing 3 repeats of estrogen responsive elements (ERE) followed by the minimal thymidine kinase promoter from the herpes simplex virus in the pGL4 vector (Promega, USA). Luciferase served as a reporter gene. The transfection was carried out in 10 cm dishes (Nunc) in the starvation medium. After 24 hours, the cells were trypsinized, counted and seeded to cell culture treated, white, solid 1536-well plates (Corning Inc., NY, USA) at 1500 cells/well in 4 μl of total media volume. The compounds to be tested were diluted in DMSO and transferred to the cells using an acoustic dispenser Echo 520 (Labcyte). The compounds were tested at least at 12 different concentration points in the range from […] to 100 μM, in triplicates. Luciferase activity was determined after 24 hours of incubation with compounds with Britelite plus luciferase reporter gene assay reagent (Perkin Elmer, USA), according to the manufacturer protocol. The luciferase signal was measured on an Envison multimode plate reader (Perkin Elmer, USA). Data were collected and processed using an in-house built LIMS system ScreenX and GraphPad Prism software. EC50 values were calculated using a regression function (dose response, variable slope).
(§3) The selectivity and potency of various example compounds in the second library was carried out via in vitro testing in ERα and ERβ cell-based reporter assays.

HEK293 cells = assay: HEK293 viability assay (ATPlite 1step); type: cell-based, human; conditions: non-transfected HEK293, 24 h, ATP level; Trial 2; Low = activity too low for exact value
Method: The non-transfected HEK293 cells were seeded to the 384-well plates at 5000 cell/well, compounds were added and the timing of all subsequent steps was exactly the same as in the reporter assays. […] After 24 h of compound incubation with cells, the viability of cells was measured by determining the ATP level in the samples using luciferase cell viability assay, ATPlite 1step (Perkin Elmer, USA).

Human full-length GR = molecular target: T2, Human full-length GR (Homo sapiens, UniProt P04150); assay: GR cell-based luciferase reporter assay, agonist and antagonist mode; conditions: U2OS stable reporter cells; antagonist mode with 10 nM dexamethasone; concentration range tested 100 μM to 100 μM (so in the source)
T2 sequence (P04150 1-777): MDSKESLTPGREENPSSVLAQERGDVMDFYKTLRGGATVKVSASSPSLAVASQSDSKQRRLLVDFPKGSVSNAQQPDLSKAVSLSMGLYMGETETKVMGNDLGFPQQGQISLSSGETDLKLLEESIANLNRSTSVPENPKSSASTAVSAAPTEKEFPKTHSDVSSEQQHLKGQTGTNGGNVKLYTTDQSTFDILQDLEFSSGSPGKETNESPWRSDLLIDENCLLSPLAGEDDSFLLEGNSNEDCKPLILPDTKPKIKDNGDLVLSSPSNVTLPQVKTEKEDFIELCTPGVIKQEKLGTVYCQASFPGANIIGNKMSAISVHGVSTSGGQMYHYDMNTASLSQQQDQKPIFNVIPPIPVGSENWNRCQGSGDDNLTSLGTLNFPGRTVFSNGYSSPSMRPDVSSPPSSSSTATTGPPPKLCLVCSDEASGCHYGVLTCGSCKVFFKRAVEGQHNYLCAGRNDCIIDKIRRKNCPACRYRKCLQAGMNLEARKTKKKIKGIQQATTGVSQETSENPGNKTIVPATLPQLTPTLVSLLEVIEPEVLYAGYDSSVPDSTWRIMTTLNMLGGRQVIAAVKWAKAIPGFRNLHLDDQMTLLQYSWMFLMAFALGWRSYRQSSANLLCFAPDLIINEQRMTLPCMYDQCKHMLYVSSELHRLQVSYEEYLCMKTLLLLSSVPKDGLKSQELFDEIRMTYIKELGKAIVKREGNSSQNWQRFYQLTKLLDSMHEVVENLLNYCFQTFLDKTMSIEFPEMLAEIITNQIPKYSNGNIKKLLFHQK

Human full-length ERα = molecular target: T3, Human full-length ERα (Homo sapiens, UniProt P03372); assay: ERα cell-based luciferase reporter assay, agonist mode; conditions: for EC50: Table 8, second library, read-out: ERα agonism EC50
T3 construct: expression vector encoding human full-length ERα or ERβ; expressed in transfected cells; host or cells: HEK293, transiently transfected
T3 sequence (P03372 1-595): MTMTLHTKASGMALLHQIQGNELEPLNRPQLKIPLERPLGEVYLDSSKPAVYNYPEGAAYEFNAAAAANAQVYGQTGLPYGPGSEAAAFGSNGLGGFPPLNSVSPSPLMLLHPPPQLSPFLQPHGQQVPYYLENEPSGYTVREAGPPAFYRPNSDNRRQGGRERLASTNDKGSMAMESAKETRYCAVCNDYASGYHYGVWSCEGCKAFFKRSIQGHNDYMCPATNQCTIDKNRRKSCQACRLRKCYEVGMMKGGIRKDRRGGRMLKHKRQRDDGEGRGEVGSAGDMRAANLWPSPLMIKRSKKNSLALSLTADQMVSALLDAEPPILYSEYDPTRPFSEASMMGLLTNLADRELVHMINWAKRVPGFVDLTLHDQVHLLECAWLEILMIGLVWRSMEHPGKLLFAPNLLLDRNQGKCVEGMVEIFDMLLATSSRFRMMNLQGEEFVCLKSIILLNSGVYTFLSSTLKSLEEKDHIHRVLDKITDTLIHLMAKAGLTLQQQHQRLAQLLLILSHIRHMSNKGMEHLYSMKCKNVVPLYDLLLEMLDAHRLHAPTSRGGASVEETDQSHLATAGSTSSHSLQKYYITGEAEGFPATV
Method: as §1, §2, §3

Human full-length AR = molecular target: T4, Human full-length AR (Homo sapiens, UniProt P10275); assay: AR cell-based luciferase reporter assay, agonist and antagonist mode; conditions: U2OS stable reporter cells; antagonist mode with 2 nM DHT; concentration range tested 100 μM to 100 μM (so in the source)
T4 sequence (P10275 1-920): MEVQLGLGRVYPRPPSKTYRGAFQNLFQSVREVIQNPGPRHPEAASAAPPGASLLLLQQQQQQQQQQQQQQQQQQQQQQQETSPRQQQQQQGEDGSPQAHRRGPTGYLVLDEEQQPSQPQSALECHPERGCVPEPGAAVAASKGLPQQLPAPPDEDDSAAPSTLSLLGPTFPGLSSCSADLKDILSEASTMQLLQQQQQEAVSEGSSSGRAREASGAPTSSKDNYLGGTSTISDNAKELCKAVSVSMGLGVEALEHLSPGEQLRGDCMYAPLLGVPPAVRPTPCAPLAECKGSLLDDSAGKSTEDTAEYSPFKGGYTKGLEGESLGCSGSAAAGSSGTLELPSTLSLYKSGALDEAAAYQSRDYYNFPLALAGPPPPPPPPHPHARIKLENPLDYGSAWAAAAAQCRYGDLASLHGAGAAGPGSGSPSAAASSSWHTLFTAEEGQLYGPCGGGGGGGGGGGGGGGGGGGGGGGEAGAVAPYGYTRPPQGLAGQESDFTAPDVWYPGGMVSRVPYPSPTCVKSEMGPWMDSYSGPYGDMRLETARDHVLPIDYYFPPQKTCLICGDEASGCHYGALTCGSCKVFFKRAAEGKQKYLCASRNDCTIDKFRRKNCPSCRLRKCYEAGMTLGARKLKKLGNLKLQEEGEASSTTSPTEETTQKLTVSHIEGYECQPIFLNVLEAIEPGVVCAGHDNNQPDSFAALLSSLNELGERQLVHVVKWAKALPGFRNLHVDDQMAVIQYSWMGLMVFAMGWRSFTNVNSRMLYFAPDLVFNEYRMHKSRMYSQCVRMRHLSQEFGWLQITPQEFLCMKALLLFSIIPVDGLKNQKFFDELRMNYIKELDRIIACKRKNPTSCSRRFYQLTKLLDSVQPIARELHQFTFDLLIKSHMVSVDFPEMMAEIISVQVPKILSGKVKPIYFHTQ

[1] = HEK293, 24 hours, Trial 2 (believed more reliable), low = activity detected but too low for exact value
[2] = Table 8, second library, read-out: ERβ agonism EC50

T1 sequence (Q92731 whole entry): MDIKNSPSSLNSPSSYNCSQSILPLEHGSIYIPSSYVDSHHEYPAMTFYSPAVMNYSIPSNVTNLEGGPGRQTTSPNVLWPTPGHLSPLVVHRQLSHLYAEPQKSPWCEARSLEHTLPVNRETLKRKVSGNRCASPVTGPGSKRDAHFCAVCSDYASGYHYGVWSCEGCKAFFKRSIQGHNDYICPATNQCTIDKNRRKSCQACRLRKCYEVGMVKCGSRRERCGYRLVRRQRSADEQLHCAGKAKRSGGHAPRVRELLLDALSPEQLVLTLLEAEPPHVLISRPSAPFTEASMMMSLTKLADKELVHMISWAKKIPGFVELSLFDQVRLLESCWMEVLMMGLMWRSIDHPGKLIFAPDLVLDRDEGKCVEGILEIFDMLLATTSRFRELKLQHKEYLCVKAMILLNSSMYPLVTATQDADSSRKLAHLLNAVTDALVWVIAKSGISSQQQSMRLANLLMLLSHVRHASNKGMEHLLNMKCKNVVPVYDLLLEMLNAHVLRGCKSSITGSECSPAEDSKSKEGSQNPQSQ

| Compound | agonistic or antagonistic activities on GR (Human full-length GR) | EC50 (Human full-length ERα) [µM] | EC50 (Human full-length ERβ; [2]) [µM] | other results |
| --- | --- | --- | --- | --- |
| 1-(4-hydoxyphenyl)-12-(1-hydroxyheptyl)-1,12-dicarba-closo-dodecaborane [Compound 06] | no agonistic or antagonistic activities |  |  | ERβ Efficacy (Human full-length ERβ; HEK293, 24 hours, Trial 2): 100 and 103; ERβ Log(EC50) (Human full-length ERβ; [1]): −7.71 and −7.76; EC50 (Human full-length ERβ; HEK293, 24 hours, Trial 2 (believed more reliable), low = activity detected but too low for exact value, read-out: ERβ EC50): 0.019 µM and 0.017 µM; EC50 (Human full-length ERβ; text of Example 19, luciferase reporter-based cell assay in HEK cells, read-out: EC50 at ERβ): 0.005 µM; IC50 (HEK293 cells): 18 µM and 17 µM |
| CCCCCC[C@H](O)c1ccc(-c2ccc(O)cc2)cc1 [Compound 26] |  | > 10 | > 10 |  |
| CCCCCC[C@H](O)C1CCC(c2ccc(O)cc2)CC1 (stereo partly drawn) [Compound 27] |  | > 10 | > 10 |  |
| CCCCCC[C@H](O)C12CCC(c3ccc(O)cc3)(CC1)CC2 [Compound 28] |  | > 10 | 4.12 |  |
| CCCCCC[C@@H](O)C12CCC(c3ccc(O)cc3)(CC1)CC2 [Compound 29] |  | > 10 | > 10 |  |
| CCCCCC[C@H](O)C1C2CC3CC1CC(c1ccc(O)cc1)(C3)C2 (stereo partly drawn) [Compound 30] |  | > 10 | > 10 |  |
| C[C@]12CC[C@@H]3c4ccc(O)cc4CC[C@H]3[C@@H]1CC[C@@H]2O [Compound E2, Estradiol, reference compound] | no agonistic or antagonistic activities |  |  | HEK293 viability IC50 (μM) (HEK293 cells): Low |
| N#CC(Cc1ccc(O)cc1)c1ccc(O)cc1 (stereo not drawn) [DPN, Diarylpropionitrile] | no agonistic or antagonistic activities |  |  | HEK293 viability IC50 (μM) (HEK293 cells): Low; agonistic or antagonistic activities on AR (Human full-length AR): no agonistic or antagonistic activities |
| CCCc1c(-c2ccc(O)cc2)nn(-c2ccc(O)cc2)c1-c1ccc(O)cc1 [PPT, Propyl pyrazole triol, reference compound] |  |  |  | ERα Efficacy (Human full-length ERα; HEK293, 24 hours, Trial 2): 101; ERβ EC50 (nM) (Human full-length ERβ; [1]): low; ERβ Log(EC50) (Human full-length ERβ; [1]): low |
